Laboratory results: US20030088312A1, “Use of cladribine on a stent to prevent restenosis” (priority 2000, published 2003)

System: human smooth muscle cells
Assay: Inhibition of PDGF-stimulated human smooth muscle cell proliferation (cell count, day 6)
Type: cell-based
Details: ratio of IC50 values, SMC vs EC
Description: To assess the ability of cladribine to prevent cell proliferation, human smooth muscle or endothelial cells (Clonetics, Walkersville, Md.) were seeded at a density of 2000 cells/cm^2 (approximately […] cells/well) into each well of 12-well plates and cultured with 1.5 ml of growth medium containing 5% fetal calf serum (FCS). After 24 hours, the growth medium was changed and fresh medium containing 10 ng/ml platelet-derived growth factor AB (PDGF AB; LIFE Technologies), as well as various concentrations of cladribine (0.001-10,000 nM) were added with triplicate wells. Medium was replaced with fresh cladribine-containing medium after 3 days. On day six, cells were detached by trypsinization to yield a cell suspension, lightly centrifuged to pellet and then counted manually using a Neubauer hemacytometer system. Clee viability was assessed by trypan blue exclusion.
Table 1 provides the percent inhibition of the various tested concentrations of cladribine on human smooth muscle and endothelial cells in culture. Cladribine produced a concentration-related decrease in the proliferation of both smooth muscle and endothelial cells in this model system. […]

## Nc1nc(Cl)nc2c1ncn2[C@H]1C[C@H](O)[C@@H](CO)O1 [Cladribine]
  potency as inhibitor of smooth muscle cells relative to endothelial cells: approximately twice as potent
